Experimental data: US20220347247A1, “USE OF CANNABINOIDS IN THE TREATMENT OF INFLAMMATION AND AGING IN THE SKIN” (priority 2021, published 2022)
“Also recorded” adds a separate entry of the source. Read-outs that look alike come from different tables or passages of the source.

Tests used:
PGE2 = PGE2 release by PMA-stimulated NHEK (ELISA); type: cell-based, human; conditions: for effect on PGE2 release, in words / PGE2 release, % of the control / % of relative inhibition of PGE2 release: PMA-stimulated keratinocytes; for effect on PGE2 release, in words: overall; for PGE2 release, % of the control: highest concentration tested; for % of relative inhibition of PGE2 release: concentration not given
Description: (§1) Example 1: Effects of six compounds on normal human epidermal keratinocytes The effects on normal human epidermal keratinocytes (NHEK) were measured by assessing IL-8 and PGE2 release by PMA-stimulated NHEK using specific ELISA kits.
(§2) Keratinocytes were seeded in 96-well plates and cultured for 24 hours in culture medium. […] After pre-incubation, the medium was removed and replaced by assay medium 1 containing or not (stimulated control) the compounds or the reference compound and containing the inducer (PMA tested at 0.5 μg/ml). The cells were then incubated for 24 hours. In parallel, a non-stimulated control condition was performed.
(§3) All experimental conditions were performed in n=3. At the end of incubation, the culture supernatants were collected for IL-8 and PGE2 quantifications.
(§4) IL-8 and PGE2 released in the culture supernatants were measured using specific ELISA kits according to the supplier's instructions.

IL-8 = test: cells; type: cell-based, human; conditions: for effect on IL-8 release, in words: PMA-stimulated keratinocytes; for % Relative inhibition of IL-8 release: PMA 0.5 μg/ml
Description: as §1, §2, §3, §4

[1] = Homo sapiens, NHEK, 24 h, read-out: % Relative inhibition of PGE2 release
[2] = Homo sapiens, NHEK, 24 h, read-out: % Relative inhibition of IL-8 release
[3] = 1 μM, NHEK, PMA 0.5 μg/ml, 24 h

CCCCCc1cc(O)c(C/C=C(\C)CCC=C(C)C)c(O)c1C(=O)O [CBGA, cannabigerolic acid]
inhibition at 0.03 µM (PGE2; [1]): -17% | inhibition at 0.1 µM (PGE2; [1]): -68% | effect on PGE2 release, in words (PGE2): stimulate PGE2 expression | PGE2 release, % of the control (PGE2): 182 % of the control | inhibition at 0.03 µM (IL-8; [2]): 0% | inhibition at 0.1 µM (IL-8; [2]): -7% | inhibition at 0.3 µM (IL-8; [2]): 9%

CCCCCc1cc(O)c(C/C=C(\C)CCC=C(C)C)c(O)c1 [CBG, cannabigerol]
inhibition at 0.3 µM (PGE2; [1]): 86% | inhibition at 1 µM (PGE2; [1]): > 169% | inhibition at 3 µM (PGE2; [1]): > 159% | effect on PGE2 release, in words (PGE2): significant at all tested concentrations; also recorded: significantly inhibited | % of relative inhibition of PGE2 release (PGE2): about 160% | effect on IL-8 release, in words (IL-8; 3 μM): strongly inhibited | inhibition at 0.3 µM (IL-8; [2]): 7% | inhibition at 1 µM (IL-8; [2]): 20% | inhibition at 3 µM (IL-8; [2]): 60% | effect on IL-8 release, in words (IL-8; overall): significantly inhibited

C=C(C)[C@@H]1CCC(C)=C[C@H]1c1c(O)cc(CCCCC)c(C(=O)O)c1O [CBDA, cannabidiolic acid]
inhibition at 0.03 µM (PGE2; [1]): -24% | inhibition at 0.1 µM (PGE2; [1]): -50% | inhibition at 0.3 µM (PGE2; [1]): -20% | effect on PGE2 release, in words (PGE2): did not modulate PGE2 release | inhibition at 0.03 µM (IL-8; [2]): 11% | inhibition at 0.1 µM (IL-8; [2]): 17% | inhibition at 0.3 µM (IL-8; [2]): 0%

COc1ccc2c(c1)c(CC(=O)O)c(C)n2C(=O)c1ccc(Cl)cc1 [Indomethacin, indomethacin, reference compound]
% Relative inhibition of PGE2 release (PGE2; [3]): >169% | inhibition at 1 µM (PGE2; [1]): > 169%

C=C(C)[C@@H]1CCC(C)=C[C@H]1c1c(O)cc(CCCCC)cc1O [CBD, cannabidiol]
inhibition at 0.1 µM (PGE2; Homo sapiens, 0.1 μM, NHEK, PMA 0.5 μg/ml, 24 h, read-out: % Relative inhibition of PGE2 release): 0% | inhibition at 0.3 µM (PGE2; Homo sapiens, 0.3 μM, NHEK, PMA 0.5 μg/ml, 24 h, read-out: % Relative inhibition of PGE2 release): -59% | effect on PGE2 release, in words (PGE2): stimulate PGE2 expression | PGE2 release, % of the control (PGE2): 185 % of the control | effect on IL-8 release, in words (IL-8; 0.3 μM): overstimulated IL-8 release | inhibition at 0.1 µM (IL-8; [2]): 12% | inhibition at 0.3 µM (IL-8; [2]): -44% | inhibition at 1 µM (IL-8; [2]): 18%

O=C1O[C@H]([C@@H](O)CO)C(O)=C1O [L-Ascorbic acid, reference compound]
inhibition at 50 µg/mL (PGE2; [1]): > 148% | inhibition at 100 µg/mL (PGE2; [1]): > 160% | inhibition at 200 µg/mL (PGE2; [1]): 127% | effect on PGE2 release, in words (PGE2): overall the same effect at all tested concentrations; also recorded: significantly limited PGE2 release | % of relative inhibition of PGE2 release (PGE2): ~145% | inhibition at 50 µg/mL (IL-8; [2]): -10% | inhibition at 100 µg/mL (IL-8; [2]): 11% | inhibition at 200 µg/mL (IL-8; [2]): -15%

CCCc1cc(O)c(C/C=C(\C)CCC=C(C)C)c(O)c1C(=O)O [CBGVA, cannabigerovarinic acid]
% Relative inhibition of PGE2 release (PGE2; 0.1 μM, NHEK, PMA 0.5 μg/ml, 24 h): 19% | % Relative inhibition of PGE2 release (PGE2; 0.3 μM, NHEK, PMA 0.5 μg/ml, 24 h): 65% | % Relative inhibition of PGE2 release (PGE2; [3]): >162% | effect on PGE2 release, in words (PGE2): significant effect only when tested at the highest concentration; also recorded: inhibited PGE2 release | % of relative inhibition of PGE2 release (PGE2): about 160% | % Relative inhibition of IL-8 release (IL-8; 0.1 μM, NHEK, 24 h): 2% | % Relative inhibition of IL-8 release (IL-8; 0.3 μM, NHEK, 24 h): 11% | % Relative inhibition of IL-8 release (IL-8; 1 μM, NHEK, 24 h): 9%
